Reference: BigSolDB 2.1

O=C(O)c1cccnc1Cl
solubility (mole fraction)
Settings | 273.15 K | 278.15 K | 283.15 K | 288.15 K | 293.15 K | 298.15 K | 303.15 K | 308.15 K | 313.15 K
in 1,4-dioxane | – | – | – | 0.0088 | 0.0103 | 0.012 | 0.0136 | 0.0155 | 0.0176
in DMF | 0.124 | 0.149 | 0.175 | 0.2 | 0.228 | 0.26 | 0.291 | 0.327 | 0.367
in NMP | 0.206 | 0.235 | 0.265 | 0.295 | 0.328 | 0.36 | 0.397 | 0.437 | 0.478
in acetone | 0.00893 | 0.0103 | 0.0118 | 0.0133 | 0.0149 | 0.0166 | 0.0184 | 0.0205 | 0.0226
in acetonitrile | 0.00105 | 0.00137 | 0.00174 | 0.00214 | 0.00263 | 0.00324 | 0.00399 | – | –
in ethanol | 0.00286 | 0.00363 | 0.00461 | 0.00563 | 0.00676 | 0.00804 | 0.00953 | 0.0112 | 0.0129
in ethyl acetate | 0.0138 | 0.0163 | 0.0189 | 0.0218 | 0.0246 | 0.0276 | 0.0308 | 0.0344 | 0.0382
in isopropanol | 0.00368 | 0.00464 | 0.00574 | 0.00697 | 0.0083 | 0.00972 | 0.0113 | 0.013 | 0.0147
in methanol | 0.00227 | 0.00283 | 0.00347 | 0.00422 | 0.00505 | 0.00598 | 0.00696 | 0.00806 | 0.00927
in n-propanol | 0.00446 | 0.00546 | 0.00667 | 0.00792 | 0.00933 | 0.011 | 0.0125 | 0.0144 | 0.0162
in water | 9.1e-05 | 0.000104 | 0.00012 | 0.000136 | 0.000153 | 0.000171 | 0.000191 | 0.000216 | 0.000242
